In assay [1] the test system is cholesterol synthesis. The experiment in a line: Ex-Vivo Non-Fasted (cholesterol synthesis from [14C] sodium acetate in liver slices of orally dosed fed rats). The arrangement: species or system rat. To be noted: oral in 0.5% methocel, livers removed two hours after dosing, dose not given. As for the experimental part:
(§1) The utility of the claimed compounds is measured by the test methods described hereunder. […] 1976, Biochemistry.
The second method used (designated Ex-Vivo Non-Fasted and Ex-Vivo Fasted) used was as follows: Rats of 170-210g were maintained on a low cholesterol diet for one week prior to use. Drugs were given orally in 0.5% methocel to both fed and fasted (fasted for 16 hours) rats. After one hour (fasted rats) and two hours (fed rats) the rats were decapitated and their livers removed and transferred to chilled oxygenated Kreb's-Ringer-bicarbonate buffer (pH 7.4). The livers were then chopped into 0.5 mm slices using a McIlwain tissue chopper, and were suspended in the same buffer. Aliquots of the suspension containing 100 mg tissue were pipetted to culture tubes which contained [^14 C] sodium acetate (2 μCi, 1 mM). The tubes were gassed with 95% O2 /5%CO2, capped and incubated at 37° C. in a shaking water bath at 150 oscillation/minute for two hours. The final assay volume was 1.0 ml. After incubation the reaction was stopped by the addition of 1.0 ml of 15% KOH in ethanol, and the internal standard ^3 H-cholesterol was added. The tubes were recapped and the samples were saponified at 75° C. for two hours with periodic mixing. […] After visualization with iodine the cholesterol spots were cut and counted with liquid scintillation fluid. […]

Assay [2] deals with HMGR enzyme. Description: HMGR Screen (solubilized rat liver microsomal HMG-CoA reductase, [14C] HMG-CoA). The note with it: 20 μM HMG-CoA, pH 7.0, 37° C. Type of assay: biochemical. The method, then:
as §1
The first method used (designated HMGR Screen) was as follows: Male rats were acclimated to an alternate 12 hour light-dark cycle for a period of 2-3 weeks. The animals, weighing 180-230g, were fed ad libitum a rat chow containing 2% cholestyramine for 5 days prior to sacrifice at the mid-dark period. Liver microsomes were prepared and HMGR enzyme was solubilized from the microsomes by freeze-thaw manipulation in high ionic strength buffer. The enzyme preparation was stored at -80° C. in 300 μl portion samples. Prior to use, the enzyme was activated at 37° C. for 30 minutes in a reaction mixture. The reaction mixture was contained in a volume of 240 μl1:0.14M potassium phosphate buffer (pH 7.0); 0.18M KCl; 3.5 mM EDTA; 10 mM dithiothreitol; 0.1 mg/ml BSA; 30,000 cpm of [^14 C] HMG-CoA; 20 μM HMG-CoA; and 200 μg of solubilized enzyme with and without inhibitors (in 10 μl DMSO). After 5 minutes incubation at 37° C. the reaction was initiated with 0.2 mM NADPH. The final assay volume was 300 μl. After 10 minutes the reaction mixture was terminated with 100 μl of 1N HCl. […] After the addition of 10 ml of Aquasol , radioactivities of the samples were measured in a scintillation counter.
In general terms: Liver microsomes are vesicles of endoplasmic reticulum, rich in cytochrome P450 enzymes.

One may read the IC50 as the midpoint of a concentration-inhibition curve.

Consider `CC1(C)Sc2ccccc2C(c2ccc(F)cc2)=C1/C=C/[C@@H]1C[C@@H](O)CC(=O)O1` (relative stereo) [Example 1G], for which the inhibited cholesterol synthesis in assay [1] was found to be 43%. The compound also returned a half-maximal inhibitory concentration (IC50) in assay [2] of 9.8 nM.

The values are drawn from patent publication US4946860A, “Benzothiopyranyl derivatives as HMG-CoA reductase inhibitors” (Rorer Pharmaceutical Corporation, priority 1989, dated 1990).
